In patent publication US11040976B2, “Substrate selective inhibitors of insulin-degrading enzyme (IDE) and uses thereof” (President and Fellows of Harvard College, priority 2015, dated 2021):

target: T1, recombinant human IDE42-1019 (Homo sapiens, UniProt P14735); test: Protease assay with fluorogenic peptide substrate Mca-[…](Dnp)-OH; format: biochemical; conditions: fluorogenic peptide Mca-RPPGFSAFK(Dnp)-OH; apparent IC50 for compounds with submaximal inhibition; read-out: IC50 (μM) Proteolysis
T1 construct: recombinant human IDE42-1019 (R&D Systems); purchased R&D Systems
T1 sequence (P14735 42-1019): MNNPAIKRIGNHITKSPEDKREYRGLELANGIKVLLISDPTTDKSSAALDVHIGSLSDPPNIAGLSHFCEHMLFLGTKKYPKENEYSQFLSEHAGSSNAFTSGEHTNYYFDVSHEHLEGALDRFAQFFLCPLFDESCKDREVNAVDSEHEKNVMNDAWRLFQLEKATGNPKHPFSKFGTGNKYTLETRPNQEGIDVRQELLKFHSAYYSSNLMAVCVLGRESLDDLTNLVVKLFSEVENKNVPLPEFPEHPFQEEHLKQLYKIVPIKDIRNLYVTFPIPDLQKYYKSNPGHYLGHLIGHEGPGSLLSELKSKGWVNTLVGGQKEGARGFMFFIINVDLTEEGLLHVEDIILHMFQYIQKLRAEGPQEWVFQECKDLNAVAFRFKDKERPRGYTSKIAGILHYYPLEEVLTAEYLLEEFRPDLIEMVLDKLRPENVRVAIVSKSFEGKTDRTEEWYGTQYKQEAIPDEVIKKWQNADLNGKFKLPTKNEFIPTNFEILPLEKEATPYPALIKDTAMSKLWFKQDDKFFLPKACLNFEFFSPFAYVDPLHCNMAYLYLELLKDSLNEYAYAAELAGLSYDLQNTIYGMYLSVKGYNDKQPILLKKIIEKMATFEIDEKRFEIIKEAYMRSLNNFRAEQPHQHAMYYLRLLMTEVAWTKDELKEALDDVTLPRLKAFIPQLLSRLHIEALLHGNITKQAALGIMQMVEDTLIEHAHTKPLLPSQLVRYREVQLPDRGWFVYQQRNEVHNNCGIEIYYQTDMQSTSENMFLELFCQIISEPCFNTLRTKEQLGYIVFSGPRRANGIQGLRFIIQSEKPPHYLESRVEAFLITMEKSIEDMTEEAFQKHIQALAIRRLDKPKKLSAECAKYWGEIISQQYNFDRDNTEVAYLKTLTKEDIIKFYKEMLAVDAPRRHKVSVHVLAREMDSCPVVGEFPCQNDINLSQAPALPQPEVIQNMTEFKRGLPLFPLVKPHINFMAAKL

| Compound | IC50 [µM] |
| --- | --- |
| Cc1cccc(-c2ccc([C@@H]3[C@@H](CO)N4CCCCN(Cc5cncnc5)C[C@@H]34)cc2)c1 [compound 654] | > 100 |
| Cc1ccccc1-c1ccc([C@H]2[C@@H](CO)N3CCCCN(C(=O)c4cccnc4)C[C@@H]23)cc1 [compound 712] | > 100 |

Now from value to compound:

| IC50 [µM] | Compound |
| --- | --- |
| < 10 | COc1cccc(C#Cc2ccc([C@@H]3[C@H](CO)N4C(=O)CN(C(C)=O)C[C@@H]34)cc2)c1 [compound 608] |
| 2.5 | Cc1ccccc1-c1ccc([C@H]2[C@@H](CO)N3CCCCN(S(=O)(=O)c4cn(C)cn4)C[C@H]23)cc1 [compound 736] |
| 2.5 | Cc1ccccc1-c1ccc([C@@H]2[C@H]3CN(C(=O)c4cccnc4)CC(=O)N3[C@H]2CO)cc1 [compound 745] |
| > 100 | Cc1ccccc1-c1ccc([C@H]2[C@@H](CO)N3CCCCN(CC4CC4)C[C@@H]23)cc1 [compound 768] |

same assay, conditions: fluorogenic peptide Mca-RPPGFSAFK(Dnp)-OH; plateau at high inhibitor concentration

| Imax (%) Proteolysis (inhibition maximum) [%] | Compound |
| --- | --- |
| 70 | Cc1ccccc1-c1ccc([C@H]2[C@@H](CO)N3CCCCN(C(=O)c4cccnc4)C[C@H]23)cc1 [compound 397] |

same assay, conditions: fluorogenic peptide Mca-RPPGFSAFK(Dnp)-OH; plateau at high inhibitor concentration; read-out: Imax (%) Proteolysis (inhibition maximum)

| Compound | Emax [%] |
| --- | --- |
| Cc1ccccc1-c1ccc([C@H]2[C@@H](CO)N3CCCCN(C(=O)NC4CCCC4)C[C@H]23)cc1 [compound 255] | 50 |
| Cc1ccccc1-c1ccc([C@H]2[C@H](CO)N3C(=O)CN(C(=O)Cc4ccccn4)C[C@@H]23)cc1 [compound 321] | 50 |
| Cc1ccccc1-c1ccc([C@@H]2[C@@H](CO)N3CCCCN(C(=O)c4cccnc4)C[C@@H]23)cc1 [compound 353] | 50 |
| CCS(=O)(=O)N1CCCCN2[C@H](CO)[C@@H](c3ccc(-c4ccccc4C)cc3)[C@@H]2C1 [compound 416] | 60 |
| COc1ccc(NC(=O)N2CCCCN3[C@H](CO)[C@H](c4ccc(-c5ccccc5C)cc4)[C@@H]3C2)cc1 [compound 529] | 30 |
| Cc1cccc(-c2ccc([C@@H]3[C@@H](CO)N4CCCCN(C(=O)NC(C)C)C[C@@H]34)cc2)c1 [compound 777] | 30 |
| Cc1cccc(-c2ccc([C@@H]3[C@H](CO)N4CCCCN(S(=O)(=O)c5cn(C)cn5)C[C@@H]34)cc2)c1 [compound 795] | 40 |

Second part, the compound after the results:

| Emax [%] | Compound |
| --- | --- |
| 30 | Cc1ccccc1-c1ccc([C@H]2[C@@H](CO)N3CCCCN(C(=O)Nc4cccc(F)c4)C[C@@H]23)cc1 [compound 269] |
| 70 | Cc1ccccc1-c1ccc([C@H]2[C@H](CO)N3C(=O)CN(C(=O)c4ccncc4)C[C@@H]23)cc1 [compound 580] |
| ~100 | COc1cccc(C#Cc2ccc([C@@H]3[C@H](CO)N4C(=O)CN(C(C)=O)C[C@@H]34)cc2)c1 [compound 608] |
| 90 | Cc1cccc(-c2ccc([C@@H]3[C@@H](CO)N4C(=O)CN(C(=O)c5cnccn5)C[C@@H]34)cc2)c1 [compound 653] |
| 35 | Cc1ccccc1-c1ccc([C@H]2[C@@H](CO)N3CCCCN(S(=O)(=O)c4cn(C)cn4)C[C@H]23)cc1 [compound 736] |
| 70 | Cc1ccccc1-c1ccc([C@@H]2[C@H]3CN(C(=O)c4cccnc4)CC(=O)N3[C@H]2CO)cc1 [compound 745] |

target: T2, Human N-His6-IDE42-1019 (E. coli expressed) (Homo sapiens, UniProt P14735); test: Fluorescence anisotropy high-throughput screening assay (displacement of probe FL-6b); format: binding; conditions: final compound concentration 20 μM (6bK control 1 μM); values without asterisk
T2 construct: Human N-His6-IDE42-1019 (E. coli expressed); made in house; host or cells: E. coli (Rosetta 2 (DE3) pLysS, plasmid pTrcHis-A)
T2 sequence (P14735 42-1019): T1 sequence (P14735 42-1019)
Description: The fluorescence anisotropy screening method and probe FL-6b are described in PCT application PCT/US2014/064322, incorporated herein by reference.
Human N-His6-IDE42-1019 (E. coli expressed) was mixed with fluorescein-labeled macrocycle FL-6b:
[drawing 802] in 50 mM Tris buffer pH 8.0, with 1 M NaCl, at 25° C. Optimum signal was obtained using a mixture of […] probe FL-6b and 0.5 μM IDE. The “diversity-oriented (DOS) synthesis informer set” compound plates were pinned onto 384-well plates containing the enzyme-probe mixture (50 μL/well). The azetidine screen was pre-printed on 384-well plates and the enzyme-probe mixture was added (50 μL/well). The final compound concentration was 20 μM. IDE inhibitor 6bK was used as a positive control at a final concentration of 1 μM. After 30 minutes of equilibration, the increase in fluorescence anisotropy was recorded using an EnVision spectrophotometer (excitation 492 nm, emission 523 nm). The fluorescence anisotropy was independently measured twice for each screened compound. The Z-scores for each pair of measurements are plotted in FIG. 1A (DOS informer set) and FIG. 1B (azetidines), and average Z-scores are listed for exemplary compounds in Table E1.
Z-scores were calculated based on the raw anisotropy measured for each well according to Eq. 1, wherein x is the raw anisotropy value of the well, μ is the mean of the anisotropy of the negative control wells (DMSO) for the plate, and σ is the standard deviation in anisotropy of the negative control wells (DMSO) for the plate.

| Compound | Average Z-score (Fluorescence anisotropy) |
| --- | --- |
| Cc1ccccc1-c1ccc([C@H]2[C@@H](CO)N3CCCCN(C(=O)NC4CCCC4)C[C@H]23)cc1 [compound 255] | −17.33 |
| Cc1ccccc1-c1ccc([C@H]2[C@H](CO)N3C(=O)CN(C(=O)Cc4ccccn4)C[C@@H]23)cc1 [compound 321] | −17.72 |
| Cc1ccccc1-c1ccc([C@@H]2[C@@H](CO)N3CCCCN(C(=O)c4cccnc4)C[C@@H]23)cc1 [compound 353] | −7.98 |
| CCS(=O)(=O)N1CCCCN2[C@H](CO)[C@@H](c3ccc(-c4ccccc4C)cc3)[C@@H]2C1 [compound 416] | −18.29 |
| COc1ccc(NC(=O)N2CCCCN3[C@H](CO)[C@H](c4ccc(-c5ccccc5C)cc4)[C@@H]3C2)cc1 [compound 529] | −0.82 |
| Cc1cccc(-c2ccc([C@@H]3[C@@H](CO)N4CCCCN(Cc5cncnc5)C[C@@H]34)cc2)c1 [compound 654] | −6.65 |
| Cc1ccccc1-c1ccc([C@H]2[C@@H](CO)N3CCCCN(C(=O)c4cccnc4)C[C@@H]23)cc1 [compound 712] | −4.78 |
| Cc1cccc(-c2ccc([C@@H]3[C@@H](CO)N4CCCCN(C(=O)NC(C)C)C[C@@H]34)cc2)c1 [compound 777] | −5.51 |
| Cc1cccc(-c2ccc([C@@H]3[C@H](CO)N4CCCCN(S(=O)(=O)c5cn(C)cn5)C[C@@H]34)cc2)c1 [compound 795] | −19.52 |

Next, values leading:

| Average Z-score (Fluorescence anisotropy) | Compound |
| --- | --- |
| −4.36 | Cc1ccccc1-c1ccc([C@H]2[C@@H](CO)N3CCCCN(C(=O)Nc4cccc(F)c4)C[C@@H]23)cc1 [compound 269] |
| −11.37 | Cc1ccccc1-c1ccc([C@H]2[C@@H](CO)N3CCCCN(C(=O)c4cccnc4)C[C@H]23)cc1 [compound 397] |
| −7.49 | Cc1ccccc1-c1ccc([C@H]2[C@H](CO)N3C(=O)CN(C(=O)c4ccncc4)C[C@@H]23)cc1 [compound 580] |
| −15.34 | COc1cccc(C#Cc2ccc([C@@H]3[C@H](CO)N4C(=O)CN(C(C)=O)C[C@@H]34)cc2)c1 [compound 608] |
| −17.51 | Cc1cccc(-c2ccc([C@@H]3[C@@H](CO)N4C(=O)CN(C(=O)c5cnccn5)C[C@@H]34)cc2)c1 [compound 653] |
| −16.6 | Cc1ccccc1-c1ccc([C@H]2[C@@H](CO)N3CCCCN(S(=O)(=O)c4cn(C)cn4)C[C@H]23)cc1 [compound 736] |
| −19.67 | Cc1ccccc1-c1ccc([C@@H]2[C@H]3CN(C(=O)c4cccnc4)CC(=O)N3[C@H]2CO)cc1 [compound 745] |
| −3.48 | Cc1ccccc1-c1ccc([C@H]2[C@@H](CO)N3CCCCN(CC4CC4)C[C@@H]23)cc1 [compound 768] |
